Measurements taken from ChEMBL document CHEMBL1201862, “PubChem BioAssay data set” (2004).
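Growth conditions: 96-well plates. Treatment: test compound, 48 hours, 5 concentrations. Analysis: linear interpolation between bracketing concentrations; unreached endpoints set to highest concentration. Here, GI50 denotes the concentration required for 50% inhibition of growth.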 The source made the active and inactive calls. No stated cut-off is given here; in the data, active = GI50 up to about 1.1 µM and inactive = higher.

What was measured:
Experiment in all cases: NCI-60 cell line screen, 48 h
[1] = system: BT-549
[2] = system: CAKI-1
[3] = system: HOP-92
[4] = system: MDA-MB-231
[5] = system: SF-268
[6] = system: MOLT-4
[7] = system: PC-3
[8] = system: HT-29
[9] = system: NCI-H226
[10] = system: SF-295
[11] = system: 786-0
[12] = system: OVCAR-3
[13] = system: MDA-MB-435
[14] = system: M14
[15] = system: U-251
[16] = system: SNB-19
[17] = system: OVCAR-8
[18] = system: SNB-75
[19] = system: COLO 205
[20] = system: SW-620
[21] = system: ACHN
[22] = system: SR
[23] = system: NCI-H460
[24] = system: HCT-116
[25] = system: EKVX
[26] = system: RXF 393
[27] = system: UO-31
[28] = system: IGROV-1
[29] = system: A498
[30] = system: Malme-3M
[31] = system: KM12
[32] = system: NCI-H23
[33] = system: MDA-N
[34] = system: SK-MEL-2
[35] = system: HCC 2998
[36] = system: MCF7
[37] = system: SN12C
[38] = system: HOP-62
[39] = system: TK-10
[40] = system: DU-145
[41] = system: Hs-578T
[42] = system: HCT-15
[43] = system: OVCAR-5
[44] = system: OVCAR-4
[45] = system: SF-539
[46] = system: SK-MEL-5
[47] = system: CCRF-CEM
[48] = system: UACC-62
[49] = system: RPMI-8226
[50] = system: NCI-H522
[51] = system: NCI/ADR-RES
[52] = system: LOX IMVI
[53] = system: K562
[54] = system: T47D
[55] = system: UACC-257
[56] = system: SK-MEL-28
[57] = system: SK-OV-3
[58] = system: A549
[59] = system: HL-60

With `COC(=O)C(CNC(=O)/C=C/c1ccc(OC)c(OC)c1)NC(=O)/C=C/c1ccc(OC)c(OC)c1` (stereo not given) the GI50 [1] was > 100 µM (inactive), the GI50 [2] was > 100 µM (inactive) and the GI50 [3] was > 100 µM (inactive). For the same compound, the GI50 [4] was > 100 µM (inactive), the GI50 [5] was > 100 µM (inactive) and the GI50 [6] was 77.1 µM (inactive). For the same compound, the GI50 [7] was > 100 µM (inactive), the GI50 [8] was > 100 µM (inactive) and the GI50 [9] was > 100 µM (inactive). For the same compound, the GI50 [10] was > 100 µM (inactive), the GI50 [11] was > 100 µM (inactive) and the GI50 [12] was 66.5 µM (inactive). The GI50 [13] was > 100 µM (inactive), the GI50 [14] was > 100 µM (inactive) and the GI50 [15] was > 100 µM (inactive). The GI50 [16] was > 100 µM (inactive), the GI50 [17] was > 100 µM (inactive) and the GI50 [18] was 90.6 µM (inactive). The GI50 [19] was > 100 µM (inactive), the GI50 [20] was > 100 µM (inactive) and the GI50 [21] was > 100 µM (inactive). For the same compound, the GI50 [22] was > 100 µM (inactive), the GI50 [23] was 45.2 µM (inactive) and the GI50 [24] was > 100 µM (inactive). For the same compound, the GI50 [25] was > 100 µM (inactive), the GI50 [26] was > 100 µM (inactive) and the GI50 [27] was > 100 µM (inactive). For the same compound, the GI50 [28] was > 100 µM (inactive), the GI50 [29] was > 100 µM (inactive) and the GI50 [30] was 92.3 µM (inactive). The GI50 [31] was > 100 µM (inactive), the GI50 [32] was > 100 µM (inactive) and the GI50 [33] was > 100 µM (inactive). The GI50 [34] was > 100 µM (inactive), the GI50 [35] was 50 µM (inactive) and the GI50 [36] was > 100 µM (inactive). The GI50 [37] was > 100 µM (inactive), the GI50 [38] was > 100 µM (inactive) and the GI50 [39] was > 100 µM (inactive). The GI50 [40] was > 100 µM (inactive), the GI50 [41] was > 100 µM (inactive) and the GI50 [42] was > 100 µM. The GI50 [43] was > 100 µM (inactive), the GI50 [44] was > 100 µM (inactive) and the GI50 [45] was > 100 µM (inactive). The GI50 [46] was > 100 µM (inactive), the GI50 [47] was > 100 µM (inactive) and the GI50 [48] was > 100 µM (inactive). For the same compound, the GI50 [49] was > 100 µM (inactive), the GI50 [50] was > 100 µM (inactive) and the GI50 [51] was > 100 µM (inactive). For the same compound, the GI50 [52] was > 100 µM (inactive), the GI50 [53] was > 100 µM (inactive) and the GI50 [54] was 75.7 µM (inactive). For the same compound, the GI50 [55] was > 100 µM (inactive), the GI50 [56] was 67.3 µM (inactive) and the GI50 [57] was > 100 µM (inactive). The GI50 [58] was > 100 µM (inactive).

With `O=[N+]([O-])c1ccc(/C=N/CC2CCCN3CCCCC23)cc1` (stereo not given) the GI50 [1] was > 100 µM (inactive), the GI50 [2] was > 100 µM (inactive) and the GI50 [3] was > 100 µM (inactive). For the same compound, the GI50 [4] was > 100 µM (inactive), the GI50 [5] was > 100 µM (inactive) and the GI50 [6] was 22.9 µM (inactive). The GI50 [7] was > 100 µM (inactive), the GI50 [8] was 16.9 µM (inactive) and the GI50 [10] was > 100 µM (inactive). The GI50 [11] was 22.8 µM (inactive), the GI50 [13] was 61.7 µM (inactive) and the GI50 [14] was 55 µM (inactive). The GI50 [15] was 40.6 µM (inactive), the GI50 [16] was > 100 µM (inactive) and the GI50 [17] was 43.2 µM (inactive). The GI50 [18] was 31.6 µM (inactive), the GI50 [19] was 50.9 µM (inactive) and the GI50 [20] was 32.2 µM (inactive). For the same compound, the GI50 [21] was > 100 µM (inactive), the GI50 [22] was 4.22 µM (inactive) and the GI50 [23] was > 100 µM (inactive). For the same compound, the GI50 [24] was 58.6 µM (inactive), the GI50 [25] was > 100 µM (inactive) and the GI50 [26] was 46 µM (inactive). The GI50 [59] was 26.7 µM (inactive), the GI50 [27] was 34.2 µM (inactive) and the GI50 [28] was > 100 µM (inactive). For the same compound, the GI50 [29] was > 100 µM (inactive), the GI50 [30] was > 100 µM (inactive) and the GI50 [31] was 33.2 µM (inactive). The GI50 [32] was > 100 µM (inactive), the GI50 [33] was 34.9 µM (inactive) and the GI50 [34] was > 100 µM (inactive). The GI50 [35] was 28.6 µM (inactive), the GI50 [36] was 24 µM (inactive) and the GI50 [37] was > 100 µM (inactive). The GI50 [38] was > 100 µM (inactive), the GI50 [39] was > 100 µM (inactive) and the GI50 [40] was > 100 µM (inactive). For the same compound, the GI50 [41] was > 100 µM (inactive), the GI50 [42] was 42.7 µM and the GI50 [43] was > 100 µM (inactive). For the same compound, the GI50 [44] was > 100 µM (inactive), the GI50 [46] was > 100 µM (inactive) and the GI50 [47] was 40.8 µM (inactive). The GI50 [48] was > 100 µM (inactive), the GI50 [49] was 17.3 µM (inactive) and the GI50 [50] was > 100 µM (inactive). The GI50 [51] was > 100 µM (inactive), the GI50 [52] was 15.5 µM (inactive) and the GI50 [53] was 19.5 µM (inactive). For the same compound, the GI50 [54] was > 100 µM (inactive), the GI50 [55] was > 100 µM (inactive) and the GI50 [56] was > 100 µM (inactive). For the same compound, the GI50 [57] was > 100 µM (inactive) and the GI50 [58] was 36.2 µM (inactive).

`CCOC(=O)C1=C(N)N2C(=N[C@H]3CCCC[C@@H]32)N=C1` was tested, and the GI50 [1] was > 100 µM (inactive), the GI50 [2] was > 100 µM (inactive) and the GI50 [3] was > 100 µM (inactive). For the same compound, the GI50 [4] was > 100 µM (inactive), the GI50 [5] was > 100 µM (inactive) and the GI50 [6] was > 100 µM (inactive). For the same compound, the GI50 [7] was > 100 µM (inactive), the GI50 [8] was > 100 µM (inactive) and the GI50 [9] was 73.6 µM (inactive). For the same compound, the GI50 [10] was > 100 µM (inactive), the GI50 [11] was > 100 µM (inactive) and the GI50 [12] was > 100 µM (inactive). The GI50 [13] was > 100 µM (inactive), the GI50 [14] was > 100 µM (inactive) and the GI50 [15] was > 100 µM (inactive). The GI50 [16] was > 100 µM (inactive), the GI50 [17] was > 100 µM (inactive) and the GI50 [18] was 38.3 µM (inactive). For the same compound, the GI50 [19] was > 100 µM (inactive), the GI50 [20] was > 100 µM (inactive) and the GI50 [21] was > 100 µM (inactive). For the same compound, the GI50 [22] was > 100 µM (inactive), the GI50 [23] was > 100 µM (inactive) and the GI50 [24] was > 100 µM (inactive). For the same compound, the GI50 [25] was > 100 µM (inactive), the GI50 [26] was > 100 µM (inactive) and the GI50 [59] was > 100 µM (inactive). For the same compound, the GI50 [27] was > 100 µM (inactive), the GI50 [28] was > 100 µM (inactive) and the GI50 [29] was > 100 µM (inactive). The GI50 [30] was > 100 µM (inactive), the GI50 [31] was > 100 µM (inactive) and the GI50 [32] was > 100 µM (inactive). The GI50 [33] was > 100 µM (inactive), the GI50 [34] was > 100 µM (inactive) and the GI50 [35] was > 100 µM (inactive). For the same compound, the GI50 [36] was > 100 µM (inactive), the GI50 [37] was > 100 µM (inactive) and the GI50 [40] was > 100 µM (inactive). For the same compound, the GI50 [41] was > 100 µM (inactive), the GI50 [42] was > 100 µM and the GI50 [43] was > 100 µM (inactive). The GI50 [44] was 37 µM (inactive), the GI50 [45] was > 100 µM (inactive) and the GI50 [46] was > 100 µM (inactive). The GI50 [48] was > 100 µM (inactive), the GI50 [49] was > 100 µM (inactive) and the GI50 [50] was > 100 µM (inactive). For the same compound, the GI50 [51] was > 100 µM (inactive), the GI50 [52] was > 100 µM (inactive) and the GI50 [53] was > 100 µM (inactive). For the same compound, the GI50 [54] was > 100 µM (inactive), the GI50 [55] was > 100 µM (inactive) and the GI50 [56] was > 100 µM (inactive). The GI50 [57] was > 100 µM (inactive) and the GI50 [58] was > 100 µM (inactive).
